How the values were obtained:
[1] = test system: CCRF-CEM (CEM, T-lymfoblastic leukemia); experiment: MTT in vitro cytotoxic test, CCRF-CEM; assay type: cell-based; settings: Homo sapiens, CCRF-CEM cells
Excerpt: (§1) MTT test was used for in vitro evaluation of antitumor activities of newly synthesized compounds on cell lines derived from normal tissues or tumors. Specifically, cell lines K562 (human […]), K562-Tax (human […] myeloid leukemia, paclitaxel resistant subline, overexpress multiple drug resistant protein PgP), CEM (T-lymfoblastic leukemia), CEM-DNR-bulk (T-lymfoblastic leukemia, doxorubicin resistant), A549 (human lung adenocarcinoma), HCT116 wt (human colorectal cancer, wild-type), HCT116p53−/−(human colorectal cancer, mutant p53) a U2OS (human bone osteosarcoma) were used.
(§2) Express characteristics, susceptibility profiles of classic antitumor drugs as well as methodology of cytotoxic MTT test have been repeatedly published {ref.:Noskova, V.; Dzubak, P.; Kuzmina, G.; Ludkova, A.; Stehlik, D.; Trojanec, R.; Janostakova, A.; Korinkova, G.; Mihal, V.; Hajduch, M., Neoplasma 2002, 49, 418-425}.

[2] = test system: cancer cell lines of various histogenetic origin; experiment: In vitro cytotoxic test, summary over cancer cell lines; assay type: cell-based, human; settings: text summary of Table 4
Excerpt: as §1, §2

[3] = test system: U2OS (human bone osteosarcoma); experiment: MTT in vitro cytotoxic test, U2OS; assay type: cell-based; settings: U2OS cells
Excerpt: as §1, §2

[4] = test system: CEM-DNR-bulk (T-lymfoblastic leukemia, doxorubicin resistant); experiment: MTT in vitro cytotoxic test, CEM-DNR; assay type: cell-based; settings: Homo sapiens, CEM-DNR cells (doxorubicin resistant)
Excerpt: as §1, §2

[5] = test system: A549 (human lung adenocarcinoma); experiment: MTT in vitro cytotoxic test, A549; assay type: cell-based; settings: A549 cells
Excerpt: as §1, §2

[6] = test system: HCT116 wt (human colorectal cancer, wild-type); experiment: MTT in vitro cytotoxic test, HCT116; assay type: cell-based; settings: HCT-116, HCT116 cells (p53 wild type)
Excerpt: as §1, §2

[7] = test system: K562-Tax (human acute myeloid leukemia, paclitaxel resistant subline); experiment: MTT in vitro cytotoxic test, K562-TAX; assay type: cell-based; settings: K562-TAX cells (paclitaxel resistant)
Excerpt: as §1, §2

[8] = test system: HCT116p53−/− (human colorectal cancer, mutant p53); experiment: MTT in vitro cytotoxic test, HCT116p53; assay type: cell-based; settings: HCT116p53−/− cells
Excerpt: as §1, §2

[9] = test system: K562 (human acute myeloid leukemia); experiment: MTT in vitro cytotoxic test, K562; assay type: cell-based; settings: K562 cells
Excerpt: as §1, §2

Compound: CSc1ncnc2c1c1ccsc1n2[C@@H]1O[C@H](CO)[C@@H](O)[C@H]1O [Compound 1h, 4-(Methylsulfanyl)-8-(β-D-ribofuranosyl)-8H-thieno[3′,2′:4,5]pyrrolo[2,3-d]pyrimidine]
- IC50 [1]: 0.01 to 0.2 µM
- IC50 values (range in words) [2]: sub-micromolar to nanomolar
- IC50 [3]: 0.01 to 0.2 µM
- IC50 [4]: 25 to 50 µM
- IC50 [5]: 0.2 to 0.9 µM
- IC50 [6]: 0.01 to 0.2 µM
- IC50 [7]: 10 to 25 µM
- IC50 [8]: 0.2 to 0.9 µM
- melting point: 148 to 152 °C
- IC50 [9]: 0.2 to 0.9 µM

Compound: CN(C)c1ncnc2c1c1ccsc1n2[C@@H]1O[C@H](CO)[C@@H](O)[C@H]1O [Compound 1e, 4-(N,N-dimethylamino)-8-(β-D-ribofuranosyl)-8H-thieno[3′,2′:4,5]pyrrolo[2,3-d]pyrimidine]
- IC50 [1]: 25 to 50 µM
- IC50 [3]: 25 to 50 µM
- IC50 [4]: 25 to 50 µM
- IC50 [5]: 25 to 50 µM
- IC50 [6]: 25 to 50 µM
- IC50 [7]: 25 to 50 µM
- IC50 [8]: 25 to 50 µM
- melting point: 117 °C
- IC50 [9]: 25 to 50 µM

Compound: OC[C@H]1O[C@@H](n2c3ncnc(-c4ccco4)c3c3ccsc32)[C@H](O)[C@@H]1O [Compound 1a, 4-(Furan-2-yl)-8-(β-D-ribofuranosyl)-8H-thieno[3′,2′:4,5]pyrrolo[2,3-d]pyrimidine]
- IC50 [1]: 25 to 50 µM
- IC50 [3]: 25 to 50 µM
- IC50 [4]: 25 to 50 µM
- IC50 [5]: 25 to 50 µM
- IC50 [6]: 25 to 50 µM
- IC50 [7]: 25 to 50 µM
- IC50 [8]: 25 to 50 µM
- IC50 [9]: 25 to 50 µM

Compound: OC[C@H]1O[C@@H](n2c3ncnc(-c4cc5ccccc5o4)c3c3ccsc32)[C@H](O)[C@@H]1O [Compound 1c, 4-(Benzofuran-2-yl)-8-(β-D-ribofuranosyl)-8H-thieno[3′,2′:4,5]pyrrolo[2,3-d]pyrimidine]
- IC50 [1]: 10 to 25 µM
- IC50 values (range in words) [2]: micromolar range
- IC50 [3]: 25 to 50 µM
- IC50 [4]: 10 to 25 µM
- IC50 [5]: 25 to 50 µM
- IC50 [6]: 25 to 50 µM
- IC50 [7]: 10 to 25 µM
- IC50 [8]: 25 to 50 µM
- IC50 [9]: 25 to 50 µM

Compound: Nc1ncnc2c1c1ccsc1n2[C@@H]1O[C@H](CO)[C@@H](O)[C@H]1O [Compound 1f, 4-Amino-8-(β-D-ribofuranosyl)-8H-thieno[3′,2′:4,5]pyrrolo[2,3-d]pyrimidine]
- IC50 [1]: 0.2 to 0.9 µM
- IC50 values (range in words) [2]: micromolar range
- IC50 [3]: 0.2 to 0.9 µM
- IC50 [4]: 25 to 50 µM
- IC50 [5]: 25 to 50 µM
- IC50 [6]: 25 to 50 µM
- IC50 [7]: 0.2 to 0.9 µM
- IC50 [8]: 0.9 to 10 µM
- melting point: 98 °C
- IC50 [9]: 25 to 50 µM

Compound: COc1ncnc2c1c1ccsc1n2[C@@H]1O[C@H](CO)[C@@H](O)[C@H]1O [Compound 1g, 4-Methoxy-8-(β-D-ribofuranosyl)-8H-thieno[3′,2′:4,5]pyrrolo[2,3-d]pyrimidine]
- IC50 [1]: 0.01 to 0.2 µM
- IC50 values (range in words) [2]: sub-micromolar to nanomolar
- IC50 [3]: 0.01 to 0.2 µM
- IC50 [4]: 25 to 50 µM
- IC50 [5]: 0.9 to 10 µM
- IC50 [6]: 0.2 to 0.9 µM
- IC50 [7]: 10 to 25 µM
- IC50 [8]: 0.2 to 0.9 µM
- melting point: 159 to 160 °C
- IC50 [9]: 0.2 to 0.9 µM

Compound: Cc1ncnc2c1c1ccsc1n2[C@@H]1O[C@H](CO)[C@@H](O)[C@H]1O [Compound 1d, 4-Methyl-8-(β-D-ribofuranosyl)-8H-thieno[3′,2′:4,5]pyrrolo[2,3-d]pyrimidine]
- IC50 [1]: 0.01 to 0.2 µM
- IC50 values (range in words) [2]: sub-micromolar to nanomolar
- IC50 [3]: 0.01 to 0.2 µM
- IC50 [4]: 25 to 50 µM
- IC50 [5]: 0.2 to 0.9 µM
- IC50 [6]: 0.2 to 0.9 µM
- IC50 [7]: 0.9 to 10 µM
- IC50 [8]: 0.2 to 0.9 µM
- melting point: 126 to 128 °C
- IC50 [9]: 0.01 to 0.2 µM

Compound: OC[C@H]1O[C@@H](n2c3ncnc(-c4ccoc4)c3c3ccsc32)[C@H](O)[C@@H]1O [Compound 1b, 4-(Furan-3-yl)-8-(β-D-ribofuranosyl)-8H-thieno[3′,2′:4,5]pyrrolo[2,3-d]pyrimidine]
- IC50 [1]: 25 to 50 µM
- IC50 [3]: 25 to 50 µM
- IC50 [4]: 25 to 50 µM
- IC50 [5]: 25 to 50 µM
- IC50 [6]: 25 to 50 µM
- IC50 [7]: 25 to 50 µM
- IC50 [8]: 25 to 50 µM
- IC50 [9]: 25 to 50 µM

From patent publication US10414788B2, “Substituted thienopyrrolopyrimidine ribonucleosides for therapeutic use” (USTAV ORGANICKE CHEMIE A BIOCHEMIE AV CR, V.V.I., priority 2016, dated 2019)
